The results in this text go back to US20110098312A1, “METHODS FOR PREVENTING THE DEVELOPMENT OF RETINOPATHY BY THE ORAL ADMINISTRATION OF NNR LIGANDS” (Targacept ,Inc, priority 2008, published 2011).

For one experiment, the system named is Pig primary RPE cells. As to the kind of experiment: Transepithelial resistance (TER) of RPE monolayers under oxidative stress (H2O2 and serum as source of complement). The class given is cell-based. The settings on record: for Mean Diff., Fisher's PLSD for 100 nM effect: treatment / Mean Diff., Fisher's PLSD for nicotine effect: treatment: Significance Level 5%; for Mean Diff., Fisher's PLSD for nicotine effect: treatment: dose response profiles; for dose-response profile of TER preservation: range 5 nM-1 μM; for EC50: Sus scrofa, RPE, pretreatment 1 hour prior to stressors, tested at 5 nM-1 μM, read-out: ED50 (reduction of oxidative stress-mediated TER loss); for effect of compound on TER on its own: test compound controls lack H2O2. As to the method: Pig primary RPE cells grown as stable monolayers were used for this set of experiments. RPE monolayers were treated with hydrogen peroxide (H2O2) and serum as a source of complement. This treatment is known to result in loss of transepithelial resistance (TER) in RPE cells that is dependent upon reactive oxygen species and superoxide production. […] Combined treatment of two stressors present in AMD (low oxidative stress and complement activation) results in TER loss; whereas each stressor alone has no effect. This loss in TER can be eliminated by pretreatment with superoxide dismutase (SOD) mimetic (MnTBAP). […] FIG. 4 is derived from the maximal effects observed in FIG. 3. […] The higher the resistance, the less injury to the cell. Note that “HI” is “heat inactivated.” Heat inactivates complement, a necessary component to cause injury to the RPE in the presence of peroxides. Pig primary RPE cells were harvested from pigs used for practice surgeries. Cultures were performed described by Ablonczy, Z. and C. E. Crosson, VEGF modulation of retinal pigment epithelium resistance. […] Chemicals. Compounds were tested at 5 nM-1 μM concentration. Compound A-E are as noted herein.

For experiment [1], the system named is Rat brain endothelial cell line gp8.3 cells. As to the kind of experiment: Alpha 7 ligand modulation of radiation-induced ROS generation. The class given is cell-based. The conditions noted are these: 10 uM ligand for 1 h prior to single dose of 10 Gy; H2DCFDA; FIG. 2.
Setting [2] is: pairwise comparison versus Compound B.
Setting [3] is: pairwise comparison versus Compound C.
Where [4] appears, read: pairwise comparison versus Compound D.
Setting [5] is: pairwise comparison versus Compound A.

Consider `CN[C@@]1(C)[C@@H]2CC[C@@H](C2)C1(C)C` [Compound A, exo-S-mecamylamine], for which the entries for the “Mean Diff., Fisher's PLSD for 100 nM effect: treatment” value in the experiment with Pig primary RPE cells (setting [2]), with Pig primary RPE cells (setting [3]) and in the experiment with Pig primary RPE cells (setting [4]) were −14.209, −16.276 and −6.177, respectively. Further, the “Mean Diff., Fisher's PLSD for nicotine effect: treatment” value in the experiment on Pig primary RPE cells (setting [2]) is recorded as −16.538; in the experiment with Pig primary RPE cells (setting [3]), −14.503; in the experiment on Pig primary RPE cells (setting [4]), −9.359. In the experiment with Pig primary RPE cells (FIG. 4), the “dose-response profile of TER preservation” value (“dose-response profile” for short) is listed as “exhibited a dose-response profile over the entire range used”.
Consider `c1cncc(C2CC3CCN2CC3)c1` (stereo not drawn) [Compound D], for which, in the experiment with Pig primary RPE cells (setting [2]), the “Mean Diff., Fisher's PLSD for 100 nM effect: treatment” value is listed as −8.023 and the “Mean Diff., Fisher's PLSD for nicotine effect: treatment” value is on record as −7.179.
In the case of `C(=C\[C@H]1CCNC1)/c1cncnc1` [Compound E, (R)-5-((E)-2-pyrrolidin-3-ylvinyl)pyrimidine], the EC50 in the experiment on Pig primary RPE cells (FIG. 4) is roughly 200 nM. In addition, the “Mean Diff., Fisher's PLSD for 100 nM effect: treatment” value in the experiment on Pig primary RPE cells (setting [5]) is given as 39.927; with Pig primary RPE cells (setting [2]), 25.718; in the experiment with Pig primary RPE cells (setting [3]), 23.652; in the experiment on Pig primary RPE cells (setting [4]), 33.750. Besides, the “Mean Diff., Fisher's PLSD for nicotine effect: treatment” value with Pig primary RPE cells (setting [5]) came out at 34.222; with Pig primary RPE cells (setting [2]), 17.682; with Pig primary RPE cells (setting [3]), 19.717; with Pig primary RPE cells (setting [4]), 24.861.
On to `O=C(O)c1ccc(/C2=C3\C=CC(=N3)/C(c3ccc(C(=O)O)cc3)=c3/cc/c4[n]3[Mn]([Cl])[n]3c2ccc3/C(c2ccc(C(=O)O)cc2)=C2/C=CC(=N2)\C=4c2ccc(C(=O)O)cc2)cc1` [MnTBAP, reference compound], for which the “loss in TER caused by combined stressors” value with Pig primary RPE cells (pretreatment, low oxidative stress and complement activation) is listed as “eliminated”.
For `CN1CCCC1c1cccnc1` (stereo not drawn) [nicotine, reference compound], in the experiment with Pig primary RPE cells (H2O2 + serum, dose response, FIG. 4), the “reduction of oxidative stress-mediated loss of epithelial cell integrity (TER deterioration)” value is “reduces transepithelial resistance (TER) deterioration in the presence of stress in a dose-dependent manner”.
Consider `O=C(N[C@@H]1C2CCN(CC2)[C@H]1Cc1cccnc1)c1cc(F)cc(F)c1` [Compound C, N-((2S,3R)-2-((3-pyridinyl)methyl)-1-azabicyclo[2.2.2]oct-3-yl)-3,5-difluorobenzamide], for which, in the experiment on Pig primary RPE cells (FIG. 4), the EC50 is less than 50 nM and the “dose-response profile” value is given as “plateaued at or around the ED50 level”. In the experiment with Pig primary RPE cells (setting [2]), the “Mean Diff., Fisher's PLSD for 100 nM effect: treatment” value came out at 2.066 and the “Mean Diff., Fisher's PLSD for nicotine effect: treatment” value was −2.035. Besides, in the experiment with Pig primary RPE cells (setting [4]), the “Mean Diff., Fisher's PLSD for 100 nM effect: treatment” value came out at 10.098 and the “Mean Diff., Fisher's PLSD for nicotine effect: treatment” value was determined as 5.144. The “effect of compound on TER on its own” value in the experiment on Pig primary RPE cells was “reduced TER on their own”.
In the case of `Cc1ccc(C(=O)N[C@@H]2C3CCN(CC3)[C@H]2Cc2cccnc2)s1` [Compound B, N-((2S,3R)-2-((pyridin-3-yl)methyl)-1-azabicyclo[2.2.2]oct-3-yl)-5-methylthiophene-2-carboxamide], the “radiation-induced increase in ROS level” value in experiment [1] is listed as “blocked radiation-induced increase in ROS level”. The “dose-response profile” value in the experiment with Pig primary RPE cells (FIG. 4) is given as “plateaued at or around the ED50 level”. The “effect of compound on TER on its own” value with Pig primary RPE cells is “reduced TER on their own”.
